In publication PMC7822874, “Chemoprotective antimalarials identified through quantitative high-throughput screening of Plasmodium blood and liver stage parasites” (Scientific Reports, 2021):
Several values for one entry are separate records, joined by “and”; a condition that tells them apart may be missing. Equal values may be shown once.

How the values were obtained:
[1] = tested on: T1, Plasmodium falciparum Dd2-attB (parental line), asexual blood stages; experiment: microbe, parasite or virus in culture; parameters: replicate k of 3 (each line is one of three independent assays; the three lines of one compound and parasite line follow each other); conditions: n = 1; for Individual replicates / Log AC50 (M): 72 h; for AC50: Plasmodium falciparum, DD2, 72 h, read-out: Individual replicates / Log AC50 (converted)
T1 construct: Dd2-attB, the isogenic parental line
In short: (§1)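 Statistics: two-sided Student's t-test between parental and transgenic values, from three independent assays. The transgene encodes a fumarate-dependent DHODH from yeast, independent of the parasite mETC.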

[2] = tested on: T2, Plasmodium falciparum Dd2-attB-ScDHODH (transgenic line expressing yeast DHODH), asexual blood stages; experiment: organism not typed; parameters: replicate k of 3 (each line is one of three independent assays; the three lines of one compound and parasite line follow each other)
T2 construct: Dd2-attB-ScDHODH, the transgenic line that expresses yeast DHODH
In short: as §1

[3] = 72 h; n = 1; read-out: Individual replicates / Log AC50 (converted)

Row | SMILES | Individual replicates / Log AC50 (M) [1] | AC50 [1] [µM] | Individual replicates / Log AC50 (M) ([2]; 72 h, n = 1) | AC50 [2, 3] [µM] | Individual replicates / Log AC50 (M) ([2]; 72 h; n = 1)
1 | Oc1ccc(/C=C/c2ccccc2)c2cccnc12 [NCGC00184900-01] | -5.2486 Log AC50 (M) and -5.2986 Log AC50 (M) | 6.33 | -5.1986 Log AC50 (M) and -4.7986 Log AC50 (M) |  | 
2 | O=C(O)c1ccnc2cc(-c3nc4ccccc4n3CCN3CCCCC3)sc12 [NCGC00485470-01] | -5.2986 Log AC50 (M) and -5.1986 Log AC50 (M) | 6.33 | -5.2486 Log AC50 (M) | 7.1 | 
3 | CC(C)c1ccc(Nc2c(-c3ccccn3)nc3ccccn23)cc1 [NCGC00104490-03] | -5.1986 Log AC50 (M) and -5.1486 Log AC50 (M) | 5.64 | -5.0986 Log AC50 (M) | 5.64 | 
4 | Cc1ccc(NC2=C(c3ccc(C(F)(F)F)cc3)C(=O)c3ccccc32)cc1F [NCGC00107266-02] | -6.3986 Log AC50 (M) and -6.3486 Log AC50 (M) (2×) |  | -5.2986 Log AC50 (M) and -5.1986 Log AC50 (M) and -5.5486 Log AC50 (M) |  | 
5 | C/C(=N\NC(=S)N1CCN(c2ccccn2)CC1)c1ccccn1 [NCGC00386445-01] | -5.3486 Log AC50 (M) | 4.48 |  | 4.48 | -5.3486 Log AC50 (M)
6 | O=C(NCCN1CCOCC1)c1cccc(-c2cc(O)c3ncccc3c2)c1 [NCGC00244535-01] | -4.8986 Log AC50 (M) and -5.0986 Log AC50 (M) | 6.33 | -5.1986 Log AC50 (M) and -4.7986 Log AC50 (M) |  | 
7 | Oc1cc(NCCN2CCOCC2)cc2cccnc12 [NCGC00183799-01] | -5.1486 Log AC50 (M) and -5.2486 Log AC50 (M) | 6.33 |  | 8.94 | 
8 | COC(=O)c1ccc(O)c2ncc(NC3CCNC3)cc12 (stereo not shown) [NCGC00241040-01] | -4.7486 Log AC50 (M) and -4.8486 Log AC50 (M) | 14.2 |  | 15.9 | -4.7986 Log AC50 (M)
9 | Oc1ccc(/C=C/c2ccccc2F)c2cccnc12 [NCGC00184903-01] | -5.2486 Log AC50 (M) and -5.1486 Log AC50 (M) | 6.33 | -4.9986 Log AC50 (M) and -5.1986 Log AC50 (M) | 6.33 | 
10 | CN1CCC(CCOC(c2cc3nccc(C(=O)O)c3[nH]2)c2ccccc2Cl)C1 (stereo not shown) [NCGC00481023-01] |  | 12.6 |  | 8.94 | 
11 | CCOC(=O)c1ccc(O)c2ncc(-c3ccc(C(=N)N)cc3)cc12 [NCGC00241050-01] |  | 17.8 |  | 20 | -4.6986 Log AC50 (M)
12 | CCOC(=O)CCNc1cc(N2CCc3ccccc3CC2)nc(-c2cccnc2)n1 [NCGC00351550-01] | -4.8986 Log AC50 (M) | 14.2 | -4.7986 Log AC50 (M) |  | 
13 | O=C(NCCCN1CCCC1)c1cccc(-c2cc(O)c3ncccc3c2)c1 [NCGC00247742-01] | -4.7986 Log AC50 (M) | 17.8 |  | 17.8 | -4.7486 Log AC50 (M)
14 | CCc1nc2c(sc3nc4c(cc32)COC(C)(C)C4)c(=O)n1Cc1ccco1 [NCGC00053301-03] |  | 17.8 |  | 10 | 
15 | CC(OCCN1CCCCC1)c1cnn(-c2cc(CO)ccn2)c1-c1cccc(-c2ccccc2)c1 (stereo not shown) [NCGC00479246-01] | -5.5486 Log AC50 (M) and -5.3986 Log AC50 (M) | 3.56 | -5.3486 Log AC50 (M) | 3.56 | 
16 | Oc1ccc(CNCc2ccccc2F)c2cccnc12 [NCGC00184908-01] | -5.3986 Log AC50 (M) and -5.0486 Log AC50 (M) and -5.1986 Log AC50 (M) |  | -4.7486 Log AC50 (M) and -5.1486 Log AC50 (M) (2×) |  | 
17 | Cc1ccnc(NCc2ccc(O)c3ncccc23)c1 [NCGC00241032-01] | -4.8486 Log AC50 (M) and -4.7486 Log AC50 (M) | 17.8 | -5.0486 Log AC50 (M) | 14.2 | 
18 | c1ccc(CCn2nc(-c3ccccn3)nc2CCCN2CCCCC2)cc1 [NCGC00389173-01] | -5.2986 Log AC50 (M) and -5.0986 Log AC50 (M) and -5.4486 Log AC50 (M) |  | -5.2486 Log AC50 (M) and -5.3986 Log AC50 (M) and -5.0486 Log AC50 (M) |  | 
19 | O=C(O)c1ccc(O)c2ncc(N3CCOCC3)cc12 [NCGC00241036-02] |  | 14.2 |  | 10 | 

Row | SMILES | Individual replicates / Log AC50 (M) [1] | AC50 [1] [µM] | Individual replicates / Log AC50 (M) ([2]; 72 h, n = 1) | AC50 [2, 3] [µM] | Individual replicates / Log AC50 (M) ([2]; 72 h; n = 1)
20 | CCOC(=O)CCNc1cc(N2CCc3ccccc3CC2)nc(-c2ccccn2)n1 [NCGC00344626-04] | -5.2986 Log AC50 (M) and -5.2486 Log AC50 (M) and -5.0486 Log AC50 (M) |  | -5.2986 Log AC50 (M) and -4.9486 Log AC50 (M) |  | 
21 | Oc1ccc(CNc2ccccc2Cl)c2cccnc12 [NCGC00184891-01] | -4.6986 Log AC50 (M) | 15.9 | -4.7486 Log AC50 (M) | 14.2 | 
22 | O=C(/C=C/c1cn(CC(O)CN2CCCCCC2)c2ccccc12)c1ccc(Br)cc1 (stereo not shown) [NCGC00114921-03] | -5.2486 Log AC50 (M) and -5.0986 Log AC50 (M) | 4.48 | -5.0486 Log AC50 (M) and -5.1986 Log AC50 (M) | 4.48 | 
23 | CC1CN(c2cnc3c(O)ccc(C(=O)O)c3c2)CCN1Cc1ccccc1 (stereo not shown) [NCGC00249383-01] | -4.7486 Log AC50 (M) and -4.8486 Log AC50 (M) | 17.8 | -4.7986 Log AC50 (M) | 17.8 | 
24 | O=C(NCCC12CCCN1CCC2)c1cccc(-c2cc(O)c3ncccc3c2)c1 [NCGC00249386-01] | -4.7986 Log AC50 (M) | 17.8 | -4.6986 Log AC50 (M) | 17.8 | 
25 | CCCN1C(CC(C)C)=N[S+](=O)([O-])c2cc(NC(=O)c3cccs3)ccc21 [NCGC00473217-02] | -7.0986 Log AC50 (M) and -6.8486 Log AC50 (M) and -6.8986 Log AC50 (M) |  | -6.3986 Log AC50 (M) and -6.0986 Log AC50 (M) and -6.3486 Log AC50 (M) |  | 
26 | CC(C)OC(=O)c1ccnc2cc(C(OCCN3CCCCC3)c3cccc(N)c3)sc12 (stereo not shown) [NCGC00488684-01] | -5.1986 Log AC50 (M) and -5.1486 Log AC50 (M) | 7.1 | -5.0986 Log AC50 (M) | 12.6 | 
27 | COC(=O)c1ccnc(NCc2ccc(O)c3ncccc23)c1 [NCGC00241031-01] | -4.8986 Log AC50 (M) and -4.7486 Log AC50 (M) | 15.9 | -4.7986 Log AC50 (M) | 12.6 | 
28 | COc1ccc(-c2c(-c3cc(N)ccn3)ncn2C)cc1 [NCGC00421914-01] | -4.7986 Log AC50 (M) and -4.9486 Log AC50 (M) | 14.2 | -4.9986 Log AC50 (M) | 12.6 | 
29 | CN1CCN(C(=O)c2ccc(-c3cnc4c(O)ccc(C(=O)O)c4c3)cc2)CC1 [NCGC00189504-01] | -4.7986 Log AC50 (M) | 17.8 | -4.7486 Log AC50 (M) | 15.9 | 
30 | CCOC(=O)c1ccnc(-n2ncc(C(OCCN3CCCCC3)c3ccccc3)c2-c2ccccc2Cl)c1 (stereo not shown) [NCGC00484789-01] | -5.0486 Log AC50 (M) and -4.9986 Log AC50 (M) | 8.94 | -5.0486 Log AC50 (M) and -4.9486 Log AC50 (M) | 14.2 | 
31 | O=C(O)c1ccnc(-n2ncc(C(OCCN3CCCCC3)c3cccc(-c4ccccc4)c3)c2-c2cccc(-c3ccccc3)c2)c1 (stereo not shown) [NCGC00487052-02] | -5.3986 Log AC50 (M) and -5.4486 Log AC50 (M) and -5.3486 Log AC50 (M) |  | -5.1486 Log AC50 (M) and -5.2486 Log AC50 (M) |  | 
32 | CN(C)c1ccc(-c2nc(-c3ccccc3O)n(Cc3ccccc3)n2)cc1 [NCGC00388637-01] | -6.0986 Log AC50 (M) | 0.797 | -5.6486 Log AC50 (M) and -6.0486 Log AC50 (M) and -6.1486 Log AC50 (M) |  | 
33 | Oc1cc(-c2ccc(CN3CCOCC3)c(F)c2)cc2cccnc12 [NCGC00247756-01] | -5.2986 Log AC50 (M) | 5.03 | -5.2986 Log AC50 (M) and -5.2486 Log AC50 (M) | 5.03 | 
34 | O=C(O)c1ccnc2cc(C(OCCCN3CCCCC3)c3ccccc3Cl)[nH]c12 (stereo not shown) [NCGC00421948-01] | -4.9486 Log AC50 (M) | 7.97 |  | 5.03 | 
35 | O=C(O)c1ccnc2cc(C(OCCN3CCOCC3)c3ccccc3Cl)[nH]c12 (stereo not shown) [NCGC00421890-01] | -5.1986 Log AC50 (M) | 5.64 | -5.3986 Log AC50 (M) and -5.2486 Log AC50 (M) | 5.03 | 
36 | COc1ccc(NC2=C(c3ccc(C(F)(F)F)cc3)C(=O)c3ccccc32)cc1 [NCGC00107310-02] | -6.3986 Log AC50 (M) and -6.2986 Log AC50 (M) and -6.5486 Log AC50 (M) |  | -5.1486 Log AC50 (M) and -5.2986 Log AC50 (M) |  | 
37 | CC(Cc1cnccn1)Nc1cnc2c(O)ccc(C(=O)O)c2c1 (stereo not shown) [NCGC00241766-01] | -4.8486 Log AC50 (M) | 15.9 |  | 7.97 | 
38 | CN(C)CCn1nc(-c2ccccc2)nc1-c1ccccc1O [NCGC00390083-01] | -5.1486 Log AC50 (M) and -5.1986 Log AC50 (M) | 7.1 | -5.1486 Log AC50 (M) | 7.97 | 
